# According to patent publication EP0531958A1, “6-Aminoquinolones, their synthesis and their use as antibacterial agents” (MEDIOLANUM FARMACEUTICI S.P.A., priority 1991, dated 1993):
# Read-outs that look alike come from different tables or passages of the source.
# How the values were obtained:
# Format in all cases: cell-based
# [1] = test system: Escherichia coli ISF 432; assay: MIC test, agar dilution with Steers multiwell inoculator; conditions: ISF432, TSA dishes, 24 h at 35°C, read-out: Minimum Inhibiting Concentration
# Method: (§1) As to the antibacterial activity, there was determined the Least (Minimum) Inhibiting Concentration (MIC), by working according to the following operative conditions.
# (§2) There were used suspensions of test germs (5 gram-positive and 15 gram-negative) having a known titre, kept freezed at -80°C and diluted, at the time of use, in peptonized water up to a concentration of 1-2.10⁷ cfu/ml.
# (§3) A few mg of the products, according to the invention were weighed sufficient for preparing parent solutions in DMSO + NaOH (1N) containing 2560 µg/ml (64µg/ml/dish). From the thus prepared parent solutions there were prepared 12 serial dilutions (1:2) down to the concentration of 1.25 µg/ml.
# (§4) 0.5 ml of the different dilutions of each product were distributed on dishes containing 19.5 ml of agarized medium (TSA), maintained in a fluid state at the temperature of 50°C. After slight stirring, the dishes were made to solidify and dry under hood (laminar flow).
# (§5) The MIC tests (Least or "Minimum" Inhibiting Concentration) were performed by using a Steers multiwell inoculator having 36 wells, each containing 200 µl of bacterial suspension.
# (§6) After inoculation, the dishes were placed into a thermostat and checked after 24 h of incubation at 35°C.
# (§7) The MIC is defined as the lowermost product concentration (µg/ml) inhibiting the visible growth of the microorganisms.
# [2] = test system: Staphylococcus aureus ATCC 6538; assay: as above; conditions: ATCC6538, TSA dishes, 24 h at 35°C, read-out: Minimum Inhibiting Concentration
# Method: as §1, §2, §3, §4, §5, §6, §7
# [3] = test system: Klebsiella pneumoniae ATCC 10031; assay: as above; conditions: ATCC10031, TSA dishes, 24 h at 35°C, read-out: Minimum Inhibiting Concentration
# Method: as §1, §2, §3, §4, §5, §6, §7
# [4] = test system: Acinebacter calcoloaceticus OSMPV 1130; assay: as above; conditions: TSA dishes, 24 h at 35°C, read-out: Minimum Inhibiting Concentration
# Method: as §1, §2, §3, §4, §5, §6, §7
# [5] = test system: Proteus vulgaris CNUR 6; assay: as above; conditions: CNUR6, TSA dishes, 24 h at 35°C, read-out: Minimum Inhibiting Concentration
# Method: as §1, §2, §3, §4, §5, §6, §7
# [6] = test system: Staphylococcus aureus MPR 5; assay: as above; conditions: MPR5, TSA dishes, 24 h at 35°C, read-out: Minimum Inhibiting Concentration
# Method: as §1, §2, §3, §4, §5, §6, §7
# [7] = test system: Shighella enteritidis; assay: as above; conditions: TSA dishes, 24 h at 35°C, read-out: Minimum Inhibiting Concentration
# Method: as §1, §2, §3, §4, §5, §6, §7
# [8] = test system: Escherichia coli 120; assay: as above; conditions: TSA dishes, 24 h at 35°C, read-out: Minimum Inhibiting Concentration
# Method: as §1, §2, §3, §4, §5, §6, §7
# [9] = test system: Escherichia coli CNUR 1; assay: as above; conditions: CNUR1, TSA dishes, 24 h at 35°C, read-out: Minimum Inhibiting Concentration
# Method: as §1, §2, §3, §4, §5, §6, §7
# [10] = test system: Escherichia coli ATCC 8739; assay: as above; conditions: ATCC8739, TSA dishes, 24 h at 35°C, read-out: Minimum Inhibiting Concentration
# Method: as §1, §2, §3, §4, §5, §6, §7
# [11] = test system: Pseudomonas aeruginosa ATCC 9027; assay: as above; conditions: ATCC9027, TSA dishes, 24 h at 35°C, read-out: Minimum Inhibiting Concentration
# Method: as §1, §2, §3, §4, §5, §6, §7
# [12] = test system: Escherichia coli CNUR 8; assay: as above; conditions: CNUR8, TSA dishes, 24 h at 35°C, read-out: Minimum Inhibiting Concentration
# Method: as §1, §2, §3, §4, §5, §6, §7
# [13] = test system: Pseudomonas aeruginosa CNUR 4; assay: as above; conditions: CNUR4, TSA dishes, 24 h at 35°C, read-out: Minimum Inhibiting Concentration
# Method: as §1, §2, §3, §4, §5, §6, §7
# [14] = test system: Enterobacter cloacae OMNF 1174; assay: as above; conditions: OMNF1174, TSA dishes, 24 h at 35°C, read-out: Minimum Inhibiting Concentration
# Method: as §1, §2, §3, §4, §5, §6, §7
# [15] = test system: Pseudomonas aeruginosa CNUR 2; assay: as above; conditions: CNUR2, TSA dishes, 24 h at 35°C, read-out: Minimum Inhibiting Concentration
# Method: as §1, §2, §3, §4, §5, §6, §7
# [16] = test system: Enterobacter cloacae OMNF 1153; assay: as above; conditions: OMNF1153, TSA dishes, 24 h at 35°C, read-out: Minimum Inhibiting Concentration
# Method: as §1, §2, §3, §4, §5, §6, §7
# [17] = test system: Staphylococcus epidermidis CPHL A2; assay: as above; conditions: CPHLA2, TSA dishes, 24 h at 35°C, read-out: Minimum Inhibiting Concentration
# Method: as §1, §2, §3, §4, §5, §6, §7
# [18] = test system: Providencia stuardii CNUR 5; assay: as above; conditions: CNUR5, TSA dishes, 24 h at 35°C, read-out: Minimum Inhibiting Concentration
# Method: as §1, §2, §3, §4, §5, §6, §7
# [19] = test system: Streptococcus facealis LEP Br.; assay: as above; conditions: TSA dishes, 24 h at 35°C, read-out: Minimum Inhibiting Concentration
# Method: as §1, §2, §3, §4, §5, §6, §7
# [20] = test system: Staphylococcus epidermidis HCF Berset C.; assay: as above; conditions: TSA dishes, 24 h at 35°C, read-out: Minimum Inhibiting Concentration
# Method: as §1, §2, §3, §4, §5, §6, §7
# [21] = test system: Gram -; assay: MIC test, average over the 15 gram-negative test germs; conditions: 24 h
# Method: as §1, §2, §3, §4, §5, §6, §7
# [22] = test system: Gram +; assay: MIC test, average over the 5 gram-positive test germs; conditions: 24 h
# Method: as §1, §2, §3, §4, §5, §6, §7
# [23] = geometrical average of the MIC over the 15 Gram - strains, read-out: Geometrical Average
# [24] = mean log of the MIC over the 15 Gram - strains, read-out: Log (converted)
# [25] = geometrical average of the MIC over the 5 Gram + strains, read-out: Geometrical Average
SMILES,MIC [1],MIC [2],MIC [3],MIC [4],MIC [5],MIC [6],MIC [7],MIC [8],MIC [9],MIC [10],MIC [11],MIC [12],MIC [13],MIC [14],MIC [15],MIC [16],MIC [17],MIC [18],MIC [19],MIC [20],other results
"CC(C)(C)n1cc(C(=O)O)c(=O)c2cc(N)c(N3CCc4ccccc4C3)cc21 [Compound 47, 6-amino-1-terbutyl-7-[2-(1,2,3,4-tetrahydroisoquinolinyl)]-1,4-dihydro-4-oxo-quinoline carboxylic acid]",0.12 µg/mL,0.25 µg/mL,0.12 µg/mL,2 µg/mL,128 µg/mL,0.5 µg/mL,8 µg/mL,2 µg/mL,8 µg/mL,0.12 µg/mL,32 µg/mL,2 µg/mL,128 µg/mL,8 µg/mL,64 µg/mL,16 µg/mL,0.5 µg/mL,4 µg/mL,8 µg/mL,1 µg/mL,"MIC [21, 23]: 4.77 µg/mL; MIC [21, 24]: 4.78 µg/mL; MIC [22, 25]: 0.871 µg/mL; MIC ([22]; read-out: Log (converted)): 0.871 µg/mL"
Nc1cc2c(=O)c(C(=O)O)cn(C3CC3)c2c(F)c1N1CCSCC1 [Compound 23],0.06 µg/mL,0.5 µg/mL,0.03 µg/mL,1 µg/mL,64 µg/mL,0.25 µg/mL,4 µg/mL,0.25 µg/mL,0.5 µg/mL,0.12 µg/mL,4 µg/mL,0.25 µg/mL,64 µg/mL,1 µg/mL,8 µg/mL,1 µg/mL,0.5 µg/mL,0.5 µg/mL,4 µg/mL,1 µg/mL,"MIC [21, 23]: 1.04 µg/mL; MIC [21, 24]: 1.04 µg/mL; MIC [22, 25]: 0.758 µg/mL; MIC ([22]; read-out: Log (converted)): 0.759 µg/mL"
